# Reference: paper PMC5484120 (Marine Drugs, 2017)
# Target: T1, rα1β1εδ nAChR (UniProt P20782+P25108+P25109+P25110)
# T1 construct: expressed in transfected cells; host or cells: Xenopus laevis oocytes injected with cRNA
# Test: cell-based
# Set-up: species or system rodent: rat (α1, β1, and δ), mouse (ε)
# T1 sequence (P20782 21-493): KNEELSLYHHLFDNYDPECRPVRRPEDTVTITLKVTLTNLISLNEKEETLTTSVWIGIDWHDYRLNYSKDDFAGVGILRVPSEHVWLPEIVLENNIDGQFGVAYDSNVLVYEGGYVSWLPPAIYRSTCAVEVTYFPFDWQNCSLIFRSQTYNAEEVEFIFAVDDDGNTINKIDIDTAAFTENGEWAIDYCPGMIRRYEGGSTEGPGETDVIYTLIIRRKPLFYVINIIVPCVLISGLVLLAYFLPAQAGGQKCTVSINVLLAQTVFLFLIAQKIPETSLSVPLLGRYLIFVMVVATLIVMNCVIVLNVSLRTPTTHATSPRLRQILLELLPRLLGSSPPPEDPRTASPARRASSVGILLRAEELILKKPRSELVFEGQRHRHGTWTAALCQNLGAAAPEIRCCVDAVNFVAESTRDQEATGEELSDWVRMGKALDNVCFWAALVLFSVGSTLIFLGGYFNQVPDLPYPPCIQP
# T1 sequence (P25108 21-457): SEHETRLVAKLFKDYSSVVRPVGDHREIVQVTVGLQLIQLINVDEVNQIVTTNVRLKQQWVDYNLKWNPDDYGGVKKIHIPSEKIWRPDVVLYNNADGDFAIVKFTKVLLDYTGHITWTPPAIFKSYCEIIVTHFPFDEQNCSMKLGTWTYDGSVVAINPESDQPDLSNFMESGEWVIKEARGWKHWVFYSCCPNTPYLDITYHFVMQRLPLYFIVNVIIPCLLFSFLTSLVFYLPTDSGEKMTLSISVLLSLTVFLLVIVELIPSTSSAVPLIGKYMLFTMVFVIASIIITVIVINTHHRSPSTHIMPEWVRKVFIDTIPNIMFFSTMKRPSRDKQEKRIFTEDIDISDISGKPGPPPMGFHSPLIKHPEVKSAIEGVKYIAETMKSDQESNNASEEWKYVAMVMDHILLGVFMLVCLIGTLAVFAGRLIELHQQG
# T1 sequence (P25109 24-501): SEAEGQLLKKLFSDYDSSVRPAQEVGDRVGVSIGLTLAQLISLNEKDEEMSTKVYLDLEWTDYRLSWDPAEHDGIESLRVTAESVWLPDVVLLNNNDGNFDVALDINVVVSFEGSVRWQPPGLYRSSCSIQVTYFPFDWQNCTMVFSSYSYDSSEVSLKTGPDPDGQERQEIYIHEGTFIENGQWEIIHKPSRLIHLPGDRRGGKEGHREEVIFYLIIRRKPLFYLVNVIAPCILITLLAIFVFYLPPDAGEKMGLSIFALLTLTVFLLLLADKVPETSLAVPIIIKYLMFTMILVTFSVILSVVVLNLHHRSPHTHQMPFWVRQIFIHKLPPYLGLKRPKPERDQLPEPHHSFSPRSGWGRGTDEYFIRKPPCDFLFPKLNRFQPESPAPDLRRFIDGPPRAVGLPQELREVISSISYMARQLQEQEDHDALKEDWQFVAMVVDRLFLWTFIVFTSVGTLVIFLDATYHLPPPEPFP
# T1 sequence (P25110 22-517): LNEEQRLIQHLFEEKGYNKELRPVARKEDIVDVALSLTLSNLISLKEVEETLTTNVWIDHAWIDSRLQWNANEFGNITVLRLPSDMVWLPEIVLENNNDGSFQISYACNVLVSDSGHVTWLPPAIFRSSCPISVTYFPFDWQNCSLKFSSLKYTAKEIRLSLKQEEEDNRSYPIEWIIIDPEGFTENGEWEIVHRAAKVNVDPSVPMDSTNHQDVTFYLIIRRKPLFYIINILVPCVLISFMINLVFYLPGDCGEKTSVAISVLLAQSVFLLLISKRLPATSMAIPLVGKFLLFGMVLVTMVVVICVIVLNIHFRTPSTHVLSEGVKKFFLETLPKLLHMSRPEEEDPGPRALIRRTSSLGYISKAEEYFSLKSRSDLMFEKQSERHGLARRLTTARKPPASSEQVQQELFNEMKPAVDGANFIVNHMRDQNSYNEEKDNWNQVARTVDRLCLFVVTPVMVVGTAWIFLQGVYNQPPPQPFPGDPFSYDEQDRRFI
smiles,measurement,value
CSCC[C@H](NC(=O)[C@H](CC(C)C)NC(=O)[C@H](C)N)C(=O)N[C@@H](CO)C(=O)N[C@H](C(=O)NCC(=O)N[C@H](C(=O)N[C@@H](CC(N)=O)C(=O)N[C@@H](Cc1ccc(O)cc1)C(=O)N[C@@H](CCCNC(=N)N)C(=O)N[C@@H](CC(C)C)C(=O)N[C@@H](CC(C)C)C(=O)N[C@@H](CCCCN)C(=O)N[C@H](C(=O)N[C@@H](CSCC(N)=O)C(=O)N[C@@H](CCCNC(=N)N)C(=O)NCC(=O)N[C@@H](CO)C(=O)NCC(=O)N[C@@H](CCCNC(=N)N)C(=O)N[C@@H](Cc1ccc(O)cc1)C(=O)N[C@@H](CSCC(N)=O)C(=O)N[C@@H](CCCNC(=N)N)C(=O)N[C@@H](CO)C(=O)N1CCC[C@H]1C(=O)N[C@@H](Cc1ccc(O)cc1)C(=O)O)[C@@H](C)O)[C@@H](C)O)[C@@H](C)O [GeXXVIIA-L-Nter],IC50,2190 ± 240 nM
same,"IC50 relative to GeXXVIIA-L, rα1β1εδ nAChR",about three-fold higher than GeXXVIIA-L
